The nature of data set [1]: Chemical stability of purified peptides (RP-UHPLC main peak purity loss). Type of data set: physicochemical. The note with it: for Purity loss (RP-UPLC analysis) T14-T0 (%) / Chemical stability at pH 7.5 after 14 days at 40°C (% degradation): 14 days; for Chemical stability at pH 7.5 after 14 days at 40°C (% degradation): first value of cell. Put shortly: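 Peptides at about 1.0 mg/ml in 50 mM phosphate buffer pH 7.5, or pH-adjusted for the pH series, were incubated at 40 °C for 14 and 28 days. Main-peak purity was taken as main-peak area over total area by RP-UHPLC (UV 215 nm, C8, 50 °C). Purity loss was calculated versus T0.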

Data set [2] has as its system pCRHR2. The data set is described as follows: cAMP potency, transiently transfected CHO-K1 cells, pCRHR2. Type of data set: cell-based, pig. The note with it: transiently transfected CHO-K1, average n=3; read-out: Transient cell system EC50 (nM) pCR HR2. On the procedure: (§1) Selected peptides were tested for potency on different species (mouse, rat, porcine) using transiently transfected CHO-K1 cells using the general procedure.

Data set [3] has as its target T1, hCRHR1 (Homo sapiens, UniProt P34998).
T1 sequence (P34998 24-415): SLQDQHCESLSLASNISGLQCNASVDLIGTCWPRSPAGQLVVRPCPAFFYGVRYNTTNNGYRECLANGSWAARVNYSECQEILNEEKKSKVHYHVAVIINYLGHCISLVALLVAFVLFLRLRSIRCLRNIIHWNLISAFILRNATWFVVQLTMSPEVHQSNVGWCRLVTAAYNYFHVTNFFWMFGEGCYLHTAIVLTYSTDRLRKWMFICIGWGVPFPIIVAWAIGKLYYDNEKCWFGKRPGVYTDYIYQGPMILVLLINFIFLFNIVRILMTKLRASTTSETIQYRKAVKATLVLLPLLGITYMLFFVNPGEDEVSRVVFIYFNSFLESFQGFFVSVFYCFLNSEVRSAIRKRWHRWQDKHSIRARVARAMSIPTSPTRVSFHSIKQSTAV
The experiment in a line: HTRF cAMP assay, determination of hCRHR1 potency (peptide libraries 5 conc., purified peptides 11 conc.). Type of data set: cell-based. Put shortly:
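CHO-K1 cells stably expressing human CRHR1, thawed from frozen stocks just before use, were stimulated in suspension with agonist peptides. cAMP was measured by HTRF competitive immunoassay (cryptate anti-cAMP antibody vs d2-cAMP).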

Data set [4] has as its target T1, hCRHR1. The data set is described as follows: cAMP potency, transiently transfected CHO-K1 cells, hCRHR1. Type of data set: cell-based. The settings on record: transiently transfected CHO-K1, average n=3; read-out: Transient cell system EC50 (nM) hCR HR1. Further details: DYK (FLAG); host or cells: CHO-K1, transiently transfected.
A short description of data set [5]: PK in mice. Type of data set: in vivo. Set-up: T½ / MRT: unit: h. The note with it: for MRT / T½ / clearance / half-life / Cmax / Tmax: Mouse; for bioavailability / clearance / half-life / Cmax / Tmax: male, in vivo; for bioavailability: NMRI, mouse; for clearance / half-life / Cmax / Tmax: NMRI/RjHan; for half-life: read-out: T½ (converted). How it is done:
Lean male NMRI/RjHan mice were obtained from JanVier (JanVier Labs, France) at 6 weeks of age. The animals were single housed under a 12/12 h dark-light cycle, light off at 3 PM. Room temperature was controlled to 22°C ± 1°C, with 60 % ± 20% humidity. Animals had ad libitum access to regular rodent chow (Altromin 1324, Brogaarden, Denmark) and tap water.
After 2 weeks of acclimatization, the animals were randomized into treatment groups (n=9 per group) based on body weight. Animals were dosed IV with one peptide and SC with another peptide (15 or 50 nmol/kg) Plasma samples were collected for PK analysis at times 0.17, 1, 3, 6, 24, 30, 48, 72 and 96 hours post dosing in a sparse sampling design with 3 mice per group per timepoint. Plasma samples were analyzed using LC-MSMS and PK parameters were estimated by Non-Compartmental Analysis (NCA).

In data set [6] the test system is pCRHR1. The data set is described as follows: cAMP potency, transiently transfected CHO-K1 cells, pCRHR1. The note with it: transiently transfected CHO-K1, average n=3; read-out: Transient cell system EC50 (nM) pCRHR 1. Type of data set: cell-based, pig. How it is done:
as §1

The mark [7] stands for this setting: purified peptides, CHO-K1 cells stably expressing hCRHR1, cAMP HTRF, read-out: hCRHR1 EC50.
Setting [8] is: stable cell system, Table 10, read-out: Stable EC50 (nM) hCRHR 1.

Read-outs that look alike come from different tables or passages of the source. Starred links: 1 amine or outer side, 2 acyl side, 3 side chain; linkers in the order of their positions; H or OH if unused. Non-standard residues stand in square brackets, D forms with d. Residues, ends and D or L forms follow the SMILES beside them. Groups on a side chain read outwards from the residue. *: point of attachment. C20 diacid = O=C(O)CCCCCCCCCCCCCCCCCCC(=O)*; γGlu = O=C(O)[C@H](CCC(=O)[*:2])N[*:1]; NMeI = CC[C@H](C)[C@H](NC)C(=O)O; AEEA = NCCOCCOCC(=O)O; Aib = CC(C)(N)C(=O)O Some results are limits rather than exact numbers.

As for `CC[C@H](C)[C@H](NC)C(=O)N[C@H](C(=O)N[C@@H](CC(C)C)C(=O)N[C@@H](CO)C(=O)N[C@@H](CC(C)C)C(=O)N[C@@H](CC(=O)O)C(=O)N[C@H](C(=O)N1CCC[C@H]1C(=O)N[C@H](C(=O)NCC(=O)N[C@@H](CC(C)C)C(=O)N[C@@H](CC(C)C)C(=O)N[C@@H](CCC(N)=O)C(=O)N[C@H](C(=O)N[C@@H](CC(C)C)C(=O)N[C@@H](CC(C)C)C(=O)N[C@@H](CCC(=O)O)C(=O)N[C@@H](CCC(N)=O)C(=O)N[C@@H](C)C(=O)N[C@@H](CCCNC(=N)N)C(=O)N[C@@H](C)C(=O)N[C@@H](CCCNC(=N)N)C(=O)N[C@@H](C)C(=O)N[C@@H](C)C(=O)N[C@@H](CCCNC(=N)N)C(=O)N[C@@H](CCC(=O)O)C(=O)N[C@@H](CCC(N)=O)C(=O)N[C@@H](C)C(=O)N[C@H](C(=O)N[C@@H](CCCCNC(=O)COCCOCCNC(=O)COCCOCCNC(=O)CC[C@H](NC(=O)CC[C@H](NC(=O)CCCCCCCCCCCCCCCCCCC(=O)O)C(=O)O)C(=O)O)C(=O)N[C@@H](CC(N)=O)C(=O)N[C@@H](C)C(=O)N[C@@H](CCC(=O)O)C(=O)N[C@H](C(=O)N[C@@H](CC(C)C)C(=O)N[C@@H](C)C(=O)N[C@@H](CCC(=O)O)C(=O)N[C@H](C(N)=O)C(C)C)[C@@H](C)CC)[C@@H](C)O)[C@@H](C)CC)[C@@H](C)CC)C(C)C)C(C)C` [SEQ ID NO: 6] (H-[NMeI]VLSLDVPIGLLQILLEQARARAAREQATK([AEEA-AEEA-γGlu-γGlu-C20 diacid])NAEILAEV-NH2), the “Purity loss (RP-UPLC analysis) T14-T0 (%)” value in data set [1] (pH 7.0, 40°C) was -1.8%; in data set [1] (pH 7.5, 40°C), -1.1%; in data set [1] (pH 8.0, 40°C), -3.1%. The “Purity loss (RP-UPLC analysis) T28-T0 (%)” value in data set [1] (pH 7.0, 40°C, 28 days) is reported as -2.0%; in data set [1] (pH 7.5, 40°C, 28 days) it was -2.6%; in data set [1] (pH 8.0, 40°C, 28 days) it was -7.1%. The “Chemical stability at pH 7.5 after 14 days at 40°C (% degradation)” value in data set [1] (pH 7.5, 40°C) is -1.0%. In data set [1] (pH 7.5, 40°C, 28 days, second value of cell), the “Chemical stability at pH 7.5 after 28 days at 40°C (% degradation)” value is on record as -3.5%. For the same compound, the EC50 – broadly, the concentration giving half of the maximal effect – in data set [2] is 0.03 nM; in data set [3] (setting [7]), above 5000 nM; in data set [3] (setting [8]), above 5000 nM; in data set [4], above 1000 nM; in data set [6], above 5000 nM. This compound also returned an MRT in data set [5] of 16. Besides, the T½ in data set [5] amounted to 14.7. Moreover, the bioavailability – broadly, the share of a dose that reaches the circulation, judged against a reference dose that is usually intravenous – in data set [5] (sc) was 78%. Moreover, in data set [5] (iv, 15 nmol/kg i.v.), the clearance – broadly, a measure of how efficiently the substance is removed, as volume per time – was 3.3 mL/h/kg. Also, the half-life in data set [5] (iv, 15 nmol/kg i.v.) is 14.7 h; in data set [5] (sc, 15 nmol/kg s.c.), 16 h. Also, in data set [5] (sc, 15 nmol/kg s.c.), the Cmax (in general, the highest concentration seen after dosing) stood at 90 nM. The Tmax (usually the time from dosing to the highest level) in data set [5] (sc, 15 nmol/kg s.c.) was 24 h.

As for `CC[C@H](C)[C@H](NC)C(=O)N[C@H](C(=O)N[C@@H](CC(C)C)C(=O)N[C@@H](CO)C(=O)N[C@@H](CC(C)C)C(=O)N[C@@H](CC(=O)O)C(=O)N[C@H](C(=O)N1CCC[C@H]1C(=O)N[C@H](C(=O)NCC(=O)N[C@@H](CC(C)C)C(=O)N[C@@H](CC(C)C)C(=O)N[C@@H](CCC(N)=O)C(=O)N[C@H](C(=O)N[C@@H](CC(C)C)C(=O)N[C@@H](CC(C)C)C(=O)N[C@@H](CCC(=O)O)C(=O)N[C@@H](CCC(N)=O)C(=O)N[C@@H](C)C(=O)N[C@@H](CCCNC(=N)N)C(=O)N[C@@H](C)C(=O)N[C@@H](CCCNC(=N)N)C(=O)N[C@@H](C)C(=O)N[C@@H](C)C(=O)N[C@@H](CCCNC(=N)N)C(=O)N[C@@H](CCC(=O)O)C(=O)N[C@@H](CCC(N)=O)C(=O)N[C@@H](C)C(=O)N[C@@H](CCCCNC(=O)COCCOCCNC(=O)COCCOCCNC(=O)CC[C@H](NC(=O)CC[C@H](NC(=O)CCCCCCCCCCCCCCCCCCC(=O)O)C(=O)O)C(=O)O)C(=O)N[C@H](C(=O)N[C@@H](CC(N)=O)C(=O)NC(C)(C)C(=O)N[C@@H](CCC(=O)O)C(=O)N[C@H](C(=O)N[C@@H](CC(C)C)C(=O)N[C@@H](C)C(=O)N[C@@H](CCC(=O)O)C(=O)N[C@H](C(N)=O)C(C)C)[C@@H](C)CC)[C@@H](C)O)[C@@H](C)CC)[C@@H](C)CC)C(C)C)C(C)C` [SEQ ID NO: 16] (H-[NMeI]VLSLDVPIGLLQILLEQARARAAREQAK([AEEA-AEEA-γGlu-γGlu-C20 diacid])TN[Aib]EILAEV-NH2), the “Purity loss (RP-UPLC analysis) T14-T0 (%)” value in data set [1] (pH 7.0, 40°C) was -0.6%; in data set [1] (pH 7.5, 40°C), -0.1%; in data set [1] (pH 8.0, 40°C) it was -0.5%. The “Purity loss (RP-UPLC analysis) T28-T0 (%)” value in data set [1] (pH 7.0, 40°C, 28 days) is reported as -1.1%; in data set [1] (pH 7.5, 40°C, 28 days), -0.3%; in data set [1] (pH 8.0, 40°C, 28 days), -1.1%. Also, the “Chemical stability at pH 7.5 after 14 days at 40°C (% degradation)” value in data set [1] (pH 7.5, 40°C) is -0.6 / %. The EC50 is 0.028 nM in data set [2]; above 5000 nM in data set [3] (setting [7]); above 5000 nM in data set [3] (setting [8]); above 1000 nM in data set [4]; above 5000 nM in data set [6]. The MRT in data set [5] stood at 21.5. The compound further gave a T½ in data set [5] of 15.9. In data set [5] (sc), this compound displayed a bioavailability of 62%. Besides, the clearance in data set [5] (iv, 15 nmol/kg i.v.) was 3.7 mL/h/kg. The half-life was 15.9 h in data set [5] (iv, 15 nmol/kg i.v.) and 14.8 h in data set [5] (sc, 15 nmol/kg s.c.). The same compound yielded a Cmax in data set [5] (sc, 15 nmol/kg s.c.) of 60 nM. For the same compound, in data set [5] (sc, 15 nmol/kg s.c.), the Tmax worked out at 6 h.
